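Grown in 96-well plates, cells were treated for 48 hours with each compound at five concentrations. Insufficient inhibition: endpoint recorded as highest concentration tested. GI50 marks 50% less growth. TGI denotes the concentration required for complete inhibition of growth.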
How the values were obtained:
Assay in all cases: inhibition of tumour cell growth, NCI panel, 48 h
[1] = tested on: A549 NSCLC
[2] = tested on: ACHN renal
[3] = tested on: EKVX NSCLC
[4] = tested on: HOP-92 NSCLC
[5] = tested on: M14 melanoma
[6] = tested on: OVCAR-3 ovarian
[7] = tested on: SF-268 CNS
[8] = tested on: A498 renal
[9] = tested on: BT-549 breast
[10] = tested on: MDA-N
[11] = tested on: PC-3 prostate

| SMILES | TGI [1] [µM] | TGI [2] [µM] | TGI [3] [µM] | TGI [4] [µM] | TGI [5] [µM] | TGI [6] [µM] | TGI [7] [µM] | TGI [8] [µM] | TGI [9] [µM] | TGI [10] [µM] | TGI [11] [µM] | GI50 [6] [µM] | GI50 [7] [µM] | GI50 [8] [µM] | GI50 [1] [µM] | GI50 [2] [µM] | GI50 [3] [µM] | GI50 [4] [µM] | GI50 [5] [µM] | GI50 [11] [µM] |
| --- | --- | --- | --- | --- | --- | --- | --- | --- | --- | --- | --- | --- | --- | --- | --- | --- | --- | --- | --- | --- |
| COc1ccc(-c2cc(=O)c3cc(OC)ccc3[nH]2)cc1 | > 100 | > 100 | > 100 | > 100 | > 100 | > 100 | > 100 | – | – | – | – | – | – | – | – | – | – | – | – | – |
| CCOC(=O)C1=NN(c2ccc([N+](=O)[O-])cc2)[C@@]2(C)C[C@]3(c4ccccc4)N(c4ccc([N+](=O)[O-])cc4)N=C(C(=O)OCC)N3c3ccccc3N12 | > 100 | > 100 | > 100 | – | > 100 | > 100 | > 100 | > 100 | > 100 | > 100 | > 100 | – | – | – | – | – | – | – | – | – |
| Cc1cc(/C=C/c2cc[n+](C)c3ccccc23)c(O)c2ncccc12 | 19.1 | 16.4 | 20 | 17 | 4.51 | 3.97 | 11 | 15.5 | – | – | – | – | – | – | – | – | – | – | – | – |
| COc1ccccc1-c1cc(=O)c2cc3c(cc2[nH]1)OCO3 | > 100 | > 100 | > 100 | – | – | > 100 | > 100 | 62.4 | – | – | – | 39.9 | 64.5 | – | – | – | – | – | – | – |
| Cc1c(N2CCN(C)CC2)nc2ccc(Cl)cc2c1-c1ccccc1 | 36.9 | 57.7 | 34.1 | – | 34.9 | 74.3 | > 100 | 25.3 | – | – | – | – | – | – | – | – | – | – | – | – |
| N#Cc1c(-c2ccc(Cl)cc2)[nH]c(=O)n(C2OC(CO)C(O)C(O)C2O)c1=O (stereo not given) | > 100 | > 100 | > 100 | > 100 | > 100 | > 100 | > 100 | > 100 | > 100 | – | > 100 | – | – | – | – | – | – | – | – | – |
| C/C(CC(O)(/C=N/O)c1ccccc1)=N/O (stereo not given) | > 100 | > 100 | > 100 | – | > 100 | > 100 | > 100 | – | > 100 | > 100 | > 100 | – | – | – | – | – | – | – | – | – |
| S=C1CCSc2c(ccc3ccccc23)N1 | > 100 | > 100 | > 100 | – | > 100 | > 100 | > 100 | – | > 100 | > 100 | > 100 | – | – | – | – | – | – | – | – | – |
| COc1ccc(Cc2nnc(Nc3ccc(Br)cc3)[nH]c2=O)cc1OC | > 100 | > 100 | > 100 | > 100 | > 100 | > 100 | > 100 | > 100 | > 31.6 | – | > 100 | – | – | – | – | – | – | – | – | – |
| CSc1nc(NC2OC(COC(C)=O)C(OC(C)=O)C(OC(C)=O)C2OC(C)=O)c2c(n1)OCC2=O (stereo not given) | > 100 | > 100 | – | > 100 | > 100 | > 100 | > 100 | > 100 | – | – | – | – | – | – | – | – | – | – | – | – |
| CN1C(=O)C2(C=CC(O)CC2)c2ccccc21 (stereo not given) | > 100 | > 100 | > 100 | > 100 | > 100 | > 100 | > 100 | > 100 | – | > 100 | > 100 | – | – | – | – | – | – | – | – | – |
| O=C(Nc1ccc(-n2ccc3c(NC(=O)c4ccccc4)ncnc32)cc1)Nc1ccc(Cl)c(Cl)c1 | 6.64 | 14.2 | 21 | 6.94 | 8.11 | 3.5 | 12.9 | 14.7 | – | – | 2.86 | 1.35 | 4.22 | 7.05 | 1.95 | 6.25 | 7.24 | 1.12 | 2.42 | 1.06 |
| Cc1cc(Cc2cc(C)c(NC(=O)C(=O)C3CCC4=C(SC5C=CC=CC5N4)C3=O)c(C(C)C)c2)cc(C(C)C)c1NC(=O)C(=O)C1CCC2=C(SC3C=CC=CC3N2)C1=O (stereo not given) | > 100 | > 100 | > 100 | > 100 | > 100 | > 100 | > 100 | > 100 | > 100 | – | 90.9 | – | – | – | – | – | – | – | – | – |
| COc1ccc(N2C(=O)C3c4[nH]c5ccc(Br)cc5c4C4CCC(C(C)(C)C)CC4C3C2=O)cc1 (stereo not given) | > 100 | > 100 | > 100 | – | > 100 | > 100 | > 100 | > 100 | > 100 | > 100 | > 100 | – | – | – | – | – | – | – | – | – |
| CC(C)NC(=O)OCc1c(CO)c2c(n1C)-c1ccccc1CC2 | > 100 | – | > 100 | 53.7 | – | 66.9 | > 100 | > 100 | – | – | – | – | – | – | – | – | – | – | – | – |
| Cc1ccc(/C(O)=C/C(=O)C(=O)NC23CC4CC(CC(C4)C2)C3)cc1 | > 10 | – | > 10 | > 10 | > 10 | – | > 10 | – | – | > 10 | > 10 | – | – | – | – | – | – | – | – | – |
| COc1ccc(/C(Cl)=C(\C=N/O)c2ccc(OC)c(OC)c2)cc1OC | > 100 | > 100 | > 100 | > 100 | > 100 | > 100 | > 100 | > 100 | – | – | – | – | – | – | – | – | – | – | – | – |

| SMILES | TGI [1] [µM] | TGI [2] [µM] | TGI [3] [µM] | TGI [4] [µM] | TGI [5] [µM] | TGI [6] [µM] | TGI [7] [µM] | TGI [8] [µM] | TGI [9] [µM] | TGI [10] [µM] | TGI [11] [µM] | GI50 [6] [µM] | GI50 [7] [µM] | GI50 [8] [µM] | GI50 [1] [µM] | GI50 [2] [µM] | GI50 [3] [µM] | GI50 [4] [µM] | GI50 [5] [µM] | GI50 [11] [µM] |
| --- | --- | --- | --- | --- | --- | --- | --- | --- | --- | --- | --- | --- | --- | --- | --- | --- | --- | --- | --- | --- |
| O=C(CN1CCOCC1)c1ccc2c(c1)oc(=O)n2CCN1CCOCC1 | – | – | > 100 | – | > 100 | > 100 | > 100 | > 100 | – | > 100 | > 100 | – | – | – | – | – | – | – | – | – |
| O=c1[nH]nc(-c2ccccc2)n1/N=C/c1cccs1 | > 100 | > 100 | > 100 | – | > 100 | > 100 | > 100 | > 100 | 95.8 | > 100 | > 100 | – | – | – | – | – | – | – | – | – |
| COc1ccc(CCCNC(=O)c2cc(OC)c(OC)cc2CCO)cc1OC | > 100 | > 100 | > 100 | > 100 | > 100 | > 100 | > 100 | > 100 | > 100 | – | > 100 | – | – | – | – | – | – | – | – | – |
| CC1=C(c2ccccc2)NC(=S)C(C)C(c2ccccc2)=N1 (stereo not given) | > 100 | > 100 | > 100 | – | – | – | > 100 | > 100 | > 100 | 46.8 | – | – | – | – | – | – | – | – | – | – |
| COc1cc(C2c3cc4c(cc3OC(NNS(=O)(=O)c3ccc(C)cc3)C2C)OCO4)cc(OC)c1O (stereo not given) | > 100 | 33.6 | 49.8 | 54.8 | 58.2 | 50 | > 100 | 25.2 | – | 51.4 | 14 | – | – | – | – | – | – | – | – | – |
| CC1SCc2nc3ccccc3n21 (stereo not given) | > 100 | > 100 | > 100 | > 100 | > 100 | > 100 | > 100 | > 100 | – | > 100 | > 100 | – | – | – | – | – | – | – | – | – |
| N#CC(=N)c1ncn(-c2ccc(N)cc2)c1N | > 100 | > 100 | > 100 | – | > 100 | > 100 | > 100 | > 100 | > 100 | > 100 | > 100 | – | – | – | – | – | – | – | – | – |
| CCOC(=O)C1c2[nH]c3ccccc3c2CCN1C(=O)c1ccc(OC)o1 (stereo not given) | – | > 10 | > 10 | > 10 | > 10 | > 10 | > 10 | > 10 | – | > 10 | > 10 | – | – | – | – | – | – | – | – | – |
| CC(=O)Nc1ccc2c3c(cc(O)c2c1)N(C(=O)CCCCCCC(=O)N1CC(CCl)c2c1cc(O)c1cc(NC(C)=O)ccc21)CC3CCl (stereo not given) | > 100 | 0.0345 | 0.475 | – | 0.0177 | – | 0.464 | < 0.01 | 0.0914 | – | 1.13 | – | – | – | – | – | – | – | – | – |
| O=C1C(=O)N(c2cccc(C(F)(F)F)c2)C(=S)N1c1ccccc1 | > 100 | 30.6 | > 100 | 50.7 | – | – | > 100 | 59.5 | – | 71.9 | > 100 | – | – | – | – | – | – | – | – | – |
| [N-]=[N+]=NC(c1cn(C2CC(O)C(CO)O2)c(=O)[nH]c1=O)C(Cl)I (stereo not given) | > 100 | > 100 | > 100 | – | > 100 | > 100 | > 100 | > 100 | > 100 | > 100 | – | – | – | – | – | – | – | – | – | – |
| COC1C(O)C(n2ncc3c(SC)nc(SC)nc32)OC1C(O)CO (stereo not given) | > 100 | – | > 100 | > 100 | – | > 100 | > 100 | > 100 | – | – | – | – | – | – | – | – | – | – | – | – |
| CC1=C(O)C(=O)C2C(=O)C1C1Cc3ccccc3C21 (stereo not given) | > 100 | > 100 | > 100 | > 100 | > 100 | > 100 | > 100 | > 100 | – | – | – | – | – | – | – | – | – | – | – | – |
| OC(c1ccc(C(F)(F)F)cc1)C(F)(F)c1nc2ccccc2o1 (stereo not given) | – | > 100 | > 100 | > 100 | > 100 | – | > 100 | – | > 100 | – | > 100 | – | – | – | – | – | – | – | – | – |
| CN(C)C(c1ccccc1)C1COC2Cc3ccccc3C1O2 (stereo not given) | > 100 | > 100 | > 100 | > 100 | > 100 | > 100 | > 100 | > 100 | – | > 100 | > 100 | – | – | – | – | – | – | – | – | – |
| O=C1c2ccccc2-c2nnc3c(c21)-c1ccccc1C3 | > 100 | 84.6 | > 100 | > 100 | > 100 | – | > 100 | – | – | > 100 | > 100 | – | – | – | – | – | – | – | – | – |
| CC(=O)OCC1OC(n2c(-c3ccccc3)c(C(C)=O)c(-c3cccc4ccccc34)c(C#N)c2=S)C(OC(C)=O)C(OC(C)=O)C1OC(C)=O (stereo not given) | > 100 | > 100 | > 100 | – | > 100 | > 100 | > 100 | > 100 | – | > 100 | > 100 | – | – | – | – | – | – | – | – | – |

— PubChem BioAssay (NCI)
